Test results: US11858951B2, “Boronic acid derivatives” (Merck Patent GmbH, priority 2017, dated 2024)
Like-named read-outs stand apart in the source and are kept apart here.

How the values were obtained:
[1] = biological target: LMP7 subunit of the immunoproteasome (Homo sapiens, UniProt P28062); conditions: background, Singh et al 2011; cited from earlier work
[2] = biological target: LMP7 (purified human immuno proteasome) (Homo sapiens, UniProt P28062); test: Determination of LMP7 activity (fluorescence intensity assay, Suc-LLVY-AMC); assay type: biochemical
Method: Biological Activity Determination of LMP7 Activity:
Measurement of LMP7 inhibition is performed in 384 well format based on fluorescence intensity assay.
(§1) Purified human immuno proteasome (0.25 nM) and serial diluted compounds in DMSO (range of concentrations from 30 μM to 15 pM) or controls are incubated for 20 minutes or 120 minutes (long incubation) at 25° C. in assay buffer containing 50 mM Tris pH 7.4, 0.03% SDS, 1 mM EDTA and 1% DMSO. The reaction is initiated by the addition of the fluorogenic peptide substrate, Suc-LLVY-AMC (Bachem 1-1395), at a concentration of 40 μM. After 60 minutes of incubation at 37° C., fluorescence intensity is measured at λex=350 nm and λem=450 nm with a fluorescence reader (Perkin Elmer Envision reader or equivalent).
(§2) Unless indicated otherwise the results are obtained after incubation for 20 minutes.

[3] = biological target: Beta5 (purified human constitutive proteasome) (Homo sapiens, UniProt P28074); test: Determination of Beta5 activity (fluorescence intensity assay, Suc-LLVY-AMC); assay type: biochemical
Method: Determination of Beta5 Activity:
Measurement of Beta5 inhibition is performed in 384 well format based on fluorescence intensity assay.
as §1, with “constitutive” for “immuno”, “(1.25” for “(0.25”
as §2

[4] = incubation for 20 minutes at 25° C., concentrations 30 μM to 15 pM, read-out: LMP7 IC50
[5] = incubation for 20 minutes at 25° C., concentrations 30 μM to 15 pM, read-out: Beta5 IC50

| SMILES | IC50 [2, 4] [M] | IC50 [3, 5] [M] | other results |
| --- | --- | --- | --- |
| CC1=C(C(=O)N[C@H](C)C(=O)N[C@@H](Cc2c[nH]c3ccccc23)C(=O)N[C@@H](Cc2ccccc2)C(=O)[C@@]2(C)CO2)Cc2ccccc21 [PR-924] | – | – | selectivity for the LMP7 subunit of the immunoproteasome [1]: 100 fold |
| Cc1ccc(C[C@H](NC(=O)[C@@H]2C[C@H]3CC[C@@H]2O3)B(O)O)c(C)c1 [compound 25, [(1R)-2-(2,4-dimethylphenyl)-1-{[(1S,2R,4R)-7-oxabicyclo[2.2.1]heptan-2-yl]formamido}ethyl]boronic acid] | 5e-08 to 5e-07 | 5e-06 to 3e-05 | Selectivity LMP7 vs Beta5 ([2]; LMP7 versus Beta5, incubation for 20 minutes): ++ (100 ≤ Selectivity < 300) |
| O=C(N[C@@H](CC1CCCCC1)B(O)O)[C@@H]1C[C@H]2CC[C@@H]1O2 [compound 26, [(1R)-2-cyclohexyl-1-{[(1S,2R,4R)-7-oxabicyclo[2.2.1]heptan-2-yl]formamido}ethyl]boronic acid] | – | – | IC50 ([2]; long incubation: 120 min at 25° C., read-out: LMP7 IC50 (M) (long)): 5e-07 to 5e-06 M; IC50 ([3]; long incubation: 120 min at 25° C., read-out: Beta5 IC50 (M) (long)): > 3e-05 M |
| O=C(N[C@@H](CCc1ccccc1)B(O)O)[C@@H]1C[C@H]2CC[C@@H]1O2 [compound 27, [(1R)-1-{[(1S,2R,4R)-7-oxabicyclo[2.2.1]heptan-2-yl]formamido}-3-phenylpropyl]boronic acid] | 5e-07 to 5e-06 | > 3e-05 | – |
| CC(C)C[C@H](NC(=O)[C@@H]1C[C@H]2CC[C@@H]1O2)B(O)O [compound 28, [(1R)-3-methyl-1-{[(1S,2R,4R)-7-oxabicyclo[2.2.1]heptan-2-yl]formamido}butyl]boronic acid] | 5e-07 to 5e-06 | > 3e-05 | – |
